Biological target: T1, F508del (Homo sapiens, UniProt P13569, DEL508-508)
T1 construct: expressed in transfected cells
Assay: Protocol 2: FRET membrane potential optical assay (VIPR), identification of correction compounds
Assay type: cell-based
Conditions: Table 3; compounds of Table 1 as modulators of CFTR activity; protocol not stated
How it was run: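 Corrector readout: membrane-potential FRET (CC2-DMPE donor, DiSBAC2(3) acceptor) on VIPR II after Cl⁻-free gluconate bath with 10 μM forskolin and 20 μM genistein. Before this, F508del-expressing NIH3T3 cells were exposed to test compound for 16 h at 37 °C without serum; 27 °C incubation served as temperature-correction control.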

T1 sequence (P13569 with tags, fused parts or gaps DEL508-508): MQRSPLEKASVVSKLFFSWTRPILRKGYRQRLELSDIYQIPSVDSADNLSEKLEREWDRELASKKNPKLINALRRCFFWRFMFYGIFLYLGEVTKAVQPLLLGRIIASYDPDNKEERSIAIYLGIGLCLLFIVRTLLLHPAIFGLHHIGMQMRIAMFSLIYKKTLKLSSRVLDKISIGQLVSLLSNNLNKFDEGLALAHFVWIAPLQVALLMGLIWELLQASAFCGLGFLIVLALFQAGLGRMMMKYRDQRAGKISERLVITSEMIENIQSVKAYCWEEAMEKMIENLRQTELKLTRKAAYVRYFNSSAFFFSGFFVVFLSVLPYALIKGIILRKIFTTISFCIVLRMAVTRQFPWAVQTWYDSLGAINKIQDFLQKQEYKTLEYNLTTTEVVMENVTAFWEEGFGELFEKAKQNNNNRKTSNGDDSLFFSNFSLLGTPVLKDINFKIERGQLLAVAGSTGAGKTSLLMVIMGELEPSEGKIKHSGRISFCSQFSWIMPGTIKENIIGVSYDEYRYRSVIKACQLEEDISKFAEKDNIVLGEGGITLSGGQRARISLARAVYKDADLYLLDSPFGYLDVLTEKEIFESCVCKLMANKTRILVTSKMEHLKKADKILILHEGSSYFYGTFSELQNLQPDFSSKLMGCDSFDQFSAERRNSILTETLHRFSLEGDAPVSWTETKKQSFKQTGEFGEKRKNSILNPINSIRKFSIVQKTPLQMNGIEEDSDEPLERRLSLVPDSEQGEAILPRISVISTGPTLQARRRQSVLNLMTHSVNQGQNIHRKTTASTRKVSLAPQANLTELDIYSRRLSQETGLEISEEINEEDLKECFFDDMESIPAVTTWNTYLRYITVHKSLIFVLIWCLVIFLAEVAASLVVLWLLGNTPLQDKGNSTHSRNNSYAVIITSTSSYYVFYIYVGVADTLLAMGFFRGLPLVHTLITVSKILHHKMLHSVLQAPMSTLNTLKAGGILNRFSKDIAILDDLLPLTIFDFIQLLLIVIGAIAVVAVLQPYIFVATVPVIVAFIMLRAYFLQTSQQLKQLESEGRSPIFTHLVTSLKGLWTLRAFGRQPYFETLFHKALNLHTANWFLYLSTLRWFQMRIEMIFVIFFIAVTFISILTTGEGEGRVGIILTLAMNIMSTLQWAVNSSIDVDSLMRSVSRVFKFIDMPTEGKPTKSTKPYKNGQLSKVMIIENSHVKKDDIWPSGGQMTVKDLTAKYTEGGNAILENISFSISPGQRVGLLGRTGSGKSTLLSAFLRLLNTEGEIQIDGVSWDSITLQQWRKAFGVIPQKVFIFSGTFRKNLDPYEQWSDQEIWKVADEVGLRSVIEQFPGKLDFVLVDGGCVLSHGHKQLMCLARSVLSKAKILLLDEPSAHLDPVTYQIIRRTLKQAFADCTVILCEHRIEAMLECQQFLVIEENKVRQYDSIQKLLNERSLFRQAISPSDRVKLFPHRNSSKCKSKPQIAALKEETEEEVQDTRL

## Cc1cc(C)c(Oc2nc(-n3ccc(C(F)(F)F)n3)ccc2C(=O)NS(=O)(=O)c2cccc(N)n2)c(C)c1 [Compound 676, N-[(6-amino-2-pyridyl)sulfonyl]-6-[3-(trifluoromethyl)pyrazol-1-yl]-2-(2,4,6-trimethylphenoxy)pyridine-3-carboxamide]
  EC30: +++ (“+++” means <3 uM)

## CC(C)COc1cc(F)cc(-c2ccc(C(=O)NS(=O)(=O)c3ccn[nH]3)c(N3CCCC(c4ccccn4)C3)n2)c1 (centres unmarked) [Compound 677, 6-(3-fluoro-5-isobutoxy-phenyl)-N-(1H-pyrazol-5-ylsulfonyl)-2-[3-(2-pyridyl)-1-piperidyl]pyridine-3-carboxamide]
  EC30: ++ (“++” means between 3 uM and 10 uM)

## CC(C)COc1cc(F)cc(-c2ccc(C(=O)NS(=O)(=O)c3cccc(N)n3)c(N3CC[C@H](C)C3)n2)c1 [Compound 678, N-[(6-amino-2-pyridyl)sulfonyl]-6-(3-fluoro-5-isobutoxy-phenyl)-2-[(3S)-3-methylpyrrolidin-1-yl]pyridine-3-carboxamide]
  EC30: +++ (“+++” means <3 uM)

## CC(C)COc1cc(F)cc(-c2ccc(C(=O)NS(=O)(=O)c3ccn[nH]3)c(Oc3ccccc3)n2)c1 [Compound 679, 6-(3-fluoro-5-isobutoxy-phenyl)-2-phenoxy-N-(1H-pyrazol-5-ylsulfonyl)pyridine-3-carboxamide]
  EC30: +++ (“+++” means <3 uM)

## CC(C)COc1cc(F)cc(-c2ccc(C(=O)NS(=O)(=O)c3cccc(N)n3)c(N3CC4CCC3C4)n2)c1 (centres unmarked) [Compound 680, N-[(6-amino-2-pyridyl)sulfonyl]-2-(3-azabicyclo[2.2.1]heptan-3-yl)-6-(3-fluoro-5-isobutoxy-phenyl)pyridine-3-carboxamide]
  EC30: +++ (“+++” means <3 uM)

## CC(C)COc1ccc(F)c(-c2ccc(C(=O)NS(=O)(=O)c3ccn[nH]3)c(N3[C@H](C)CC[C@@H]3C)n2)c1 [Compound 681, 2-[(2S,5R)-2,5-dimethylpyrrolidin-1-yl]-6-(2-fluoro-5-isobutoxy-phenyl)-N-(1H-pyrazol-5-ylsulfonyl)pyridine-3-carboxamide]
  EC30: +++ (“+++” means <3 uM)

## COc1cc(F)cc(-c2ccc(C(=O)NS(=O)(=O)c3cccc(N)n3)c(Oc3c(C)cc(C)cc3C)n2)c1 [Compound 682, N-[(6-amino-2-pyridyl)sulfonyl]-6-(3-fluoro-5-methoxy-phenyl)-2-(2,4,6-trimethylphenoxy)pyridine-3-carboxamide]
  EC30: +++ (“+++” means <3 uM)

## CC(C)COc1cc(F)cc(-c2ccc(C(=O)NS(=O)(=O)c3cccc(N)n3)c(N(C)C3CCC3)n2)c1 [Compound 683, N-[(6-amino-2-pyridyl)sulfonyl]-2-[cyclobutyl(methyl)amino]-6-(3-fluoro-5-isobutoxy-phenyl)pyridine-3-carboxamide]
  EC30: +++ (“+++” means <3 uM)

## CC(C)COc1cc(F)cc(-c2ccc(C(=O)NS(=O)(=O)c3cccc(N)n3)c(N3CCC[C@@H](c4ccccc4)C3)n2)c1 [Compound 684, N-[(6-amino-2-pyridyl)sulfonyl]-6-(3-fluoro-5-isobutoxy-phenyl)-2-[(3S)-3-phenyl-1-piperidyl]pyridine-3-carboxamide]
  EC30: +++ (“+++” means <3 uM)

## CC1(C)CCCc2cc(C(=O)NS(=O)(=O)c3cccc(N)c3)c(-c3ccccc3)nc21 [Compound 685, N-(3-aminophenyl)sulfonyl-8,8-dimethyl-2-phenyl-6,7-dihydro-5H-quinoline-3-carboxamide]
  EC30: +++ (“+++” means <3 uM)

## Cc1cc(C)c(Oc2nc(-c3cccc(CN4CCCCC4)c3)ccc2C(=O)NS(=O)(=O)c2cccc(N)n2)c(C)c1 [Compound 686, N-[(6-amino-2-pyridyl)sulfonyl]-6-[13-(1-piperidylmethyl)phenyl]-2-(2,4,6-trimethylphenoxy)pyridine-3-carboxamide]
  EC30: +++ (“+++” means <3 uM)

## CC(C)Oc1ccc(-c2ccc(C(=O)NS(=O)(=O)c3cccc(N)n3)c(N3[C@@H](C)CC[C@@H]3C)n2)cn1 [Compound 687, N-[(6-amino-2-pyridyl)sulfonyl]-2-[(2S,5S)-2,5-dimethylpyrrolidin-1-yl]-6-(6-isopropoxy-3-pyridyl)pyridine-3-carboxamide]
  EC30: ++ (“++” means between 3 uM and 10 uM)

## CC(C)CCOc1cc(F)cc(-c2ccc(C(=O)NS(=O)(=O)c3ccc[nH]c3=O)c(N3[C@H](C)CC[C@@H]3C)n2)c1 [Compound 688, 2-[(2S,5R)-2,5-dimethylpyrrolidin-1-yl]-6-(3-fluoro-5-isopentyloxy-phenyl)-N-[(2-oxo-1H-pyridin-3-yl)sulfonyl]pyridine-3-carboxamide]
  EC30: +++ (“+++” means <3 uM)

## CC1CC(C)N(c2nc(-c3ccc(OC(C)C)nc3)ccc2C(=O)NS(=O)(=O)c2cccc(N)n2)C1 (centres unmarked) [Compound 689, N-[(6-amino-2-pyridyl)sulfonyl]-2-(2,4-dimethylpyrrolidin-1-yl)-6-(6-isopropoxy-3-pyridyl)pyridine-3-carboxamide]
  EC30: +++ (“+++” means <3 uM)

## Cc1cc(C)c(CN2Cc3ccccc3CCC2C(=O)NS(=O)(=O)c2cccc(N)n2)c(C)c1 (centres unmarked) [Compound 690, N-[(6-amino-2-pyridyl)sulfonyl]-2-[(2,4,6-trimethylphenyl)methyl]-1,3,4,5-tetrahydro-2-benzazepine-3-carboxamide]
  EC30: ++ (“++” means between 3 uM and 10 uM)

## Cc1cc(C)c(Oc2nc(-n3cc(C(F)(F)F)cn3)ccc2C(=O)NS(=O)(=O)c2cccc(N)n2)c(C)c1 [Compound 691, N-[(6-amino-2-pyridyl)sulfonyl]-6-[4-(trifluoromethyl)pyrazol-1-yl]-2-(2,4,6-trimethylphenoxy)pyridine-3-carboxamide]
  EC30: +++ (“+++” means <3 uM)

## CCCOc1cc(-c2ccc(C(=O)NS(=O)(=O)c3cccc(N)n3)c(N3CCC(C)CC3)n2)ccc1Cl [Compound 692, N-[(6-amino-2-pyridyl)sulfonyl]-6-(4-chloro-3-propoxy-phenyl)-2-(4-methyl-1-piperidyl)pyridine-3-carboxamide]
  EC30: +++ (“+++” means <3 uM)

## CC1CN(c2nc(-c3ccc(C(C)C)cc3)ccc2C(=O)NS(=O)(=O)c2cccc(N)n2)C(C)(C)C1 (centres unmarked) [Compound 693, N-[(6-amino-2-pyridyl)sulfonyl]-6-(4-isopropylphenyl)-2-(2,2,4-trimethylpyrrolidin-1-yl)pyridine-3-carboxamide]
  EC30: +++ (“+++” means <3 uM)

## CC(C)COc1cc(F)cc(-c2ccc(C(=O)NS(=O)(=O)c3cccc(N)n3)c(N3CCC[C@H]3C)n2)c1 [Compound 694, N-[(6-amino-2-pyridyl)sulfonyl]-6-(3-fluoro-5-isobutoxy-phenyl)-2-[(2R)-2-methylpyrrolidin-1-yl]pyridine-3-carboxamide]
  EC30: +++ (“+++” means <3 uM)

## CC(C)COc1cccc(-c2ccc(C(=O)NS(=O)(=O)c3cccc(N)n3)c(N3CC(C)CC3(C)C)n2)c1 (centres unmarked) [Compound 695, N-[(6-amino-2-pyridyl)sulfonyl]-6-(3-isobutoxyphenyl)-2-(2,2,4-trimethylpyrrolidin-1-yl)pyridine-3-carboxamide]
  EC30: +++ (“+++” means <3 uM)

## Cc1cc(C)c(CN2CCCc3ccccc3C2C(=O)NS(=O)(=O)c2cccc(N)n2)c(C)c1 (centres unmarked) [Compound 696, N-[(6-amino-2-pyridyl)sulfonyl]-2-[(2,4,6-trimethylphenyl)methyl]-1,3,4,5-tetrahydro-2-benzazepine-1-carboxamide]
  EC30: +++ (“+++” means <3 uM)

## Cc1cc(C)c(Oc2nc(-c3cccnc3OCC(F)(F)F)ccc2C(=O)NS(=O)(=O)c2cccc(N)n2)c(C)c1 [Compound 697, N-[(6-amino-2-pyridyl)sulfonyl]-6-[2-(2,2,2-trifluoroethoxy)-3-pyridyl]-2-(2,4,6-trimethylphenoxy)pyridine-3-carboxamide]
  EC30: +++ (“+++” means <3 uM)

## CC1CCN(c2nc(-c3cc(F)cc(OC(C)C)c3)ccc2C(=O)NS(=O)(=O)c2nccnc2N)CC1 [Compound 699, N-(3-aminopyrazin-2-yl)sulfonyl-6-(3-fluoro-5-isopropoxy-phenyl)-2-(4-methyl-1-piperidyl)pyridine-3-carboxamide]
  EC30: +++ (“+++” means <3 uM)

## COc1ccc(F)cc1-c1ccc(C(=O)NS(=O)(=O)c2cccc(N)n2)c(Oc2c(C)cc(C)cc2C)n1 [Compound 700, N-[(6-amino-2-pyridyl)sulfonyl]-6-(5-fluoro-2-methoxy-phenyl)-2-(2,4,6-trimethylphenoxy)pyridine-3-carboxamide]
  EC30: +++ (“+++” means <3 uM)

## CC(C)Oc1cc(-c2ccc(C(=O)NS(=O)(=O)c3ccn[nH]3)c(N3[C@H](C)CC[C@@H]3C)n2)ccc1Cl [Compound 701, 6-(4-chloro-3-isopropoxy-phenyl)-2-[(2S,5R)-2,5-dimethylpyrrolidin-1-yl]-N-(1H-pyrazol-5-ylsulfonyl)pyridine-3-carboxamide]
  EC30: +++ (“+++” means <3 uM)

## Cc1ccc(-c2nc(C(C)(C)C)ccc2C(=O)NS(=O)(=O)c2ccc(N)nc2)cc1 [Compound 702, N-[(6-amino-3-pyridyl)sulfonyl]-6-tert-butyl-2-(p-tolyl)pyridine-3-carboxamide]
  EC30: ++ (“++” means between 3 uM and 10 uM)

## CC(C)Oc1ccc(-c2ccc(C(=O)NS(=O)(=O)c3cccc(N)n3)c(N3CCCC4(CC4)C3)n2)cn1 [Compound 703, N-[(6-amino-2-pyridyl)sulfonyl]-2-(7-azaspiro[2.5]octan-7-yl)-6-(6-isopropoxy-3-pyridyl)pyridine-3-carboxamide]
  EC30: +++ (“+++” means <3 uM)

## C[C@@H]1CC[C@H](C)N1c1nc(C2CCCCC2)ccc1C(=O)NS(=O)(=O)c1cccc(N)n1 [Compound 704, N-[(6-amino-2-pyridyl)sulfonyl]-6-cyclohexyl-2-[(2S,5R)-2,5-dimethylpyrrolidin-1-yl]pyridine-3-carboxamide]
  EC30: ++ (“++” means between 3 uM and 10 uM)

## COc1ncc(-c2ccc(C(=O)NS(=O)(=O)c3cccc(N)n3)c(Oc3c(C)cc(C)cc3C)n2)cc1C [Compound 705, N-[(6-amino-2-pyridyl)sulfonyl]-6-(6-methoxy-5-methyl-3-pyridyl)-2-(2,4,6-trimethylphenoxy)pyridine-3-carboxamide]
  EC30: +++ (“+++” means <3 uM)
